Experimental data taken from a melting point compilation (Tetko et al.; mined from patent text by program, amines drawn as free bases though some values may be those of a salt).

Row | SMILES | melting point
1 | O=C(C=P(c1ccccc1)(c1ccccc1)c1ccccc1)CCCCO | 121 to 124 °C
2 | O=[N+]([O-])c1cc(CBr)cc([N+](=O)[O-])c1 | 93 to 94 °C
3 | CCN1CCN(CCN2CC[C@H](NC(=O)c3cc(Cl)c(N)cc3OC)[C@H](OC(=O)N3CCCC3)C2)C1=O (relative stereo) | 214 °C
4 | COCC1COc2cc3ncnc(Nc4cccc(C(F)(F)F)c4)c3cc2O1 (stereo not given) | 280 to 282 °C
5 | N#Cc1ccc(C(Cl)(Cl)Cl)cc1C(Cl)(Cl)Cl | 76 to 78 °C
6 | COCSc1nccn1-c1cccc(C2=Nc3ccc(-c4ccccc4F)cc3NC(=O)C2)c1 | 189 to 190 °C
7 | O=C1CC(c2ccccc2)c2cc(C(=O)c3ccc(Cl)cc3)ccc2N1 (stereo not given) | 204 °C
8 | O=C1SCc2c1cccc2[N+](=O)[O-] | 128 to 133 °C
9 | O=C(Nc1ccccc1)OC1C=CC2COC1O2 (stereo not given) | 107 to 109 °C
10 | COc1cc2c(cc1OC)C(C=Cc1ccc([N+](=O)[O-])cc1)=NN(C(C)=O)C(C)C2 (stereo not given) | 182 to 184 °C
11 | OC[C@]1(c2ccccc2)O[C@H]1c1ccccc1 | 88 to 89 °C
12 | N#Cc1ccc2nc(C(=O)NCc3cccc(OCCSc4nc[nH]n4)c3)[nH]c(=O)c2c1 | 195 to 198 °C
13 | O[C@@H]1CN(C[C@H](O)c2ccccc2)CC[C@H]1CCOC(c1ccccc1)c1ccccc1 | 84 to 86 °C
14 | O=[N+]([O-])c1ccccc1Cc1n[nH]c(O)n1 | 210 to 212 °C
15 | CC1(C)CC(OC(=O)c2ccccc2)CC(C)(C)N1OC(=NC1CCCCC1)NC1CCCCC1 | 50 to 57 °C
16 | CC(C)(C)c1nc2cc3c(cc2[nH]1)NC(=O)C3(C)C | > 300 °C
17 | OCCN(Cc1ccccc1)CC1(O)CCN(CCCc2c[nH]c3ccc(-n4cnnc4)cc23)CC1 | 75 to 78 °C
18 | C=CC(C)(O)C=CC1=C(C)C(=O)C(OC(C)(C)OC)CC1(C)C (stereo not given) | 47.5 to 49 °C
19 | O=C(O)C1C2OCCC21Br (mixture of isomers) | 196 to 198 °C
20 | NC1=NS(=O)N=C1NCCSCc1ccc(CN2CCCCC2)o1 (stereo not given) | 161 to 163 °C
21 | CC(C)(C)c1cc(-c2c(C(=O)O)c(=O)oc3cc4c(cc23)CCC4)cc(C(C)(C)C)c1O | 256 to 260 °C
22 | COc1ccc(C2Sc3c(ccc4ccccc34)NC(=O)C2O)cc1 (stereo not given) | 232 to 234 °C
23 | CCOC(=O)C(C(=O)OC(C)C)=C1SC=CS1 | 54 °C
24 | O=C(c1ccc(F)c(F)c1)N1CCC[C@H](c2nc(-c3ccccn3)no2)C1 | 135 to 137 °C

Row | SMILES | melting point
25 | CC12CC(=O)NN=C1c1ccc(N)cc1C2 (stereo not given) | 222 °C
26 | Cc1cc(CCCCCOc2ccc(-c3nnco3)cc2)on1 | 84 to 86 °C
27 | COc1ccc(-c2c3c(cc4ccc(O)cc24)-c2ccc(O)cc2CO3)cc1 | 200 to 203 °C
28 | CN1C(=O)C(C(=O)Nc2ccc(Cl)cc2Oc2c(Cl)cccc2Cl)C(=O)N(C)C1=S | 254 to 257 °C
29 | COc1ccc(-c2cc(C(=O)C(F)(F)F)[nH]c2-c2ccc(OC)cc2)cc1 | 185 to 186 °C
30 | CSc1ccc(C2=C(c3ccc(CO)cc3)CCC2)cc1 | 82 to 85 °C
31 | Nc1sc(/C=C/Cc2ccc(Cl)cc2)c(CN(C2CCCCC2)C2CCCCC2)c1C(=O)c1ccc(Cl)cc1 | 143 to 146 °C
32 | Nc1sc2c(c1C(=O)c1ccc(Br)c3ccccc13)CCC2 | 210 to 212 °C
33 | COC(=O)Cc1cc2c(cc1CC1NCCc3cc(OC)c(OC)cc31)OCO2 (stereo not given) | 99 to 101 °C
34 | CCCn1c(CCOC)nc2c(N)nc3cc(OC4CCN(C(=O)OC(C)(C)C)CC4)ccc3c21 | 173 to 175 °C
35 | O=C(c1ccccc1)N1CCC(C(Nc2ccc(F)cc2)c2ccc(F)cc2)CC1 (stereo not given) | 157 to 158 °C
36 | COc1cc2cc(CO)nc(-c3ccnc(NN)c3)c2cc1OC | 157 to 159 °C
37 | O=C1Nc2cc3c(cc2OC1CCCN1CCN(c2ccc(F)cc2)CC1)CCCC3 (stereo not given) | 156 to 157 °C
38 | CCSc1ccc(-c2coc3ccc(-c4nnc(C)o4)nc23)cc1 | 174 to 175 °C
39 | CCC1Cc2c(N3CCOCC3)c(F)cc3c(=O)c(C(=O)O)cn1c23 (stereo not given) | 275 to 278 °C
40 | O=C1/C(=C/c2ccccc2)C(Br)c2ccccc21 (stereo not given) | 118 to 119 °C
41 | O=C(O)c1cn(C2CC2)c2nc(N3Cc4ccccc4C3)c(F)cc2c1=O | > 300 °C
42 | COc1cccc(NC(=O)C(C#N)C(=O)c2nn(-c3ccccc3)c3c2Cc2ccccc2-3)c1 (stereo not given) | 280 to 284 °C
43 | N#CNc1ccccc1N1CCOCC1 | 175 to 176 °C
44 | CCCCSC(=NC(=O)N(CCC)CCC)NC(=O)NC(C)(C)C | 92 to 94 °C
45 | O=C(O)c1ccc(O)c(C(O)C(Cl)Cl)c1 (stereo not given) | 214 to 215 °C
46 | CCCCCCCCCC1SC(c2cccnc2)NC1=O (stereo not given) | 90 to 95 °C
47 | CC(=NOCCOc1ccc(CC2SC(=O)NC2=O)cc1)c1ccc(-c2ccccc2)cn1 (stereo not given) | 136 to 138 °C

The remaining lines, values ahead:

Row | melting point | SMILES
48 | 181 °C | CCOC(=O)C(=O)Nc1c([N+](=O)[O-])ccc2ncccc12
49 | 66 to 68 °C | Cc1onc(-c2cccc(Cl)c2)c1CO
50 | 280 to 282 °C | Cc1[nH]c(=O)c(C#N)cc1-c1ccc(CC(=O)O)cc1
51 | 193 to 197 °C | COc1ccc2c(c1)C(=O)N(c1ccc3c(ccn3C)c1)C2
52 | 198 °C | [N-]=[N+]=Nc1nc(NC(=O)c2ccccc2)nc2c1ncn2CC(O)CF (racemic)
53 | 82 to 83 °C | Cc1ccc(C(=C/C=C/CO)c2ccc(C)cc2)cc1
54 | 265 °C | CN(C)c1ccc2nc(N)c(C#N)c(NCc3ccccc3)c2c1
55 | 138 to 140 °C | O=C(CNc1ccc(O)cc1)N1CCC(Cc2ccccc2)CC1
56 | 202 to 204 °C | CCn1cc(C(=O)O)c(=O)c2cc(F)c(N3CCNC(c4ccoc4)C3)cc21 (stereo not given)
57 | 194 to 196 °C | CCOC(=O)c1cc(Cl)c(-n2nc(CC)c(C(N)=O)c2N)c(Cl)c1
58 | 263 to 270 °C | O=c1[nH]c2ccc(S(=O)(=O)N3CCN(c4ccccn4)CC3)c3c2c2c(cccc12)C3
59 | 134 to 135 °C | CCCCC(=O)Nc1ncc(Br)c(C)c1[N+](=O)[O-]
60 | 219 °C | CC(=O)On1c(=O)c(=O)[nH]c2cc(Cl)ccc21
61 | 202 to 204 °C | Cc1ccc2c(c1)N=C(N1CCN(C)CC1)c1cccc3ccn-2c13
62 | 106 to 108 °C | CS(=O)(=O)OCCCCC1C(=O)Nc2ccc(F)cc21 (stereo not given)
63 | 172 °C | O=C1c2ccccc2C(=O)N1CCOc1cc(F)ccc1O
64 | 106 to 108 °C | CS(=O)(=O)Nc1ccc(OC[C@@H]2CO2)cc1
65 | 52 to 56 °C | CC(C)(C)c1ocnc1/C=C1\NC(=O)[C@H](Cc2ccccc2)NC1=O
66 | 220 to 222 °C | CC(C)(CNc1ccc(C2=NNC(=O)CC2)cc1)[N+](=O)[O-]
67 | 126 to 127 °C | CNc1cc(S(=O)(=O)c2ccc(N)cc2)cc(C)n1
68 | 75 °C | Cc1cc(-n2ccnc2)c2cccc(OCc3c(Cl)ccc(S(=O)(=O)N4CCC[C@H]4C(=O)NCCCN(C)C(=O)OC(C)(C)C)c3Cl)c2n1
69 | 49 to 50 °C | CC1CN(CC(C)C(O)c2ccc(C(C)(C)C)cc2)CC(C)O1 (stereo not given)
70 | 143 °C | COC(=O)CC1CC(c2ccc(C(=N)NC(=O)OC(C)(C)C)cn2)=NO1 (stereo not given)
71 | 142 °C | O=C(N(C1CCNCC1)C1CC1)N1N=C2c3cc(F)ccc3OC[C@@H]2[C@@H]1c1ccccc1 (racemic)
72 | 125 to 127 °C | CN(C)c1ccc2c3c(cccc13)C(=O)c1ccccc1-2
73 | 145 to 147 °C | Nc1nccc(OCc2ccccc2)c1[N+](=O)[O-]
74 | 85 to 86.5 °C | OCc1csc(NCc2ccccc2)n1

Row | melting point | SMILES
75 | 76 to 77 °C | CCOC(=O)c1cnc2c([N+](=O)[O-])cccc2c1N(C)C
76 | 117 °C | C=CCC(C(=O)O)c1ccc(C(=O)c2cccs2)cc1 (stereo not given)
77 | 128 to 130 °C | COC(=O)C1=C(C)NC(c2csc(C)n2)=NC1c1ccc(F)cc1Cl (stereo not given)
78 | 131 °C | Clc1ccccc1C(Cl)(c1ccccc1)c1ccccc1
79 | 134 to 135 °C | CCc1cc(Cl)cc(S(N)(=O)=O)c1N
80 | 87 to 88 °C | COc1ccc2c(c1)C(C(=O)N(Cc1ccc(Cl)cc1)c1ccc(C(C)C)cc1)CCC2 (stereo not given)
81 | 117 to 118 °C | COC(=O)c1cc2cccc(OCc3cccnc3)c2o1
82 | 189 to 192 °C | CN1Cc2cccnc2N(c2cccc(F)c2)C1=O
83 | 85 to 90 °C | COC(=O)c1c(O)cccc1OCCCCNC(=O)CCc1ccc(N2CC(=O)NS2(=O)=O)c(O)c1
84 | 181 to 182 °C | CCN1c2ncc(COc3cccc(C(=O)O)c3)cc2C(=O)N(C)c2ccc(Cl)nc21
85 | 111 to 112 °C | COC(=O)c1nccnc1N(C)c1ccc(Cl)cc1[N+](=O)[O-]
86 | 219 to 221 °C | CCSc1nc2c(cc1F)c(=O)c(C(=O)O)cn2CC
87 | 274 °C | CC(=O)Nc1nc(-c2ccc(S(C)=O)cc2)cs1 (stereo not given)
88 | 160 to 163 °C | CC(C)(C)c1cc(-c2nn(Cc3cccc(C(F)(F)F)c3)c3ncccc23)cc(C(C)(C)C)c1O
89 | 97.2 to 98.4 °C | CCOC(=O)C1=Cc2cc(S(=O)(=O)Cl)ccc2OC1C(F)(F)F (stereo not given)
90 | 219 to 220 °C | CCCOc1ncc(NC(=O)N(C)C)cc1-c1nc2c(CCC)nn(C)c2c(=O)[nH]1
91 | 133 to 134 °C | CC(C)(C)c1cc(CN(c2cccnc2)S(C)(=O)=O)cc(C(C)(C)C)c1O
92 | 107 to 110 °C | COc1ccc2c(c1)C(=O)N(C)C(C(Cl)(Cl)Cl)O2 (stereo not given)
93 | 66 to 68 °C | CCOCCNC(=O)OCCCc1ccc(OCCOC)cc1Oc1ncc(C(F)(F)F)cc1Cl
94 | 192 to 195 °C | COc1nc(NC(=O)NS(=O)(=O)c2ccccc2C(=O)OC(C)C)nc(OC)n1
95 | 95 to 97 °C | COc1cccc(C(=C/C=C/C(=O)Oc2ccc([N+](=O)[O-])cc2)c2cccc(OC)c2)c1
96 | 210 to 211 °C | CC(C)c1c(C(=O)c2cccc(C=CC#N)c2)[nH]c(=O)[nH]c1=O
97 | 60 to 61.5 °C | CCN(CC)C(=O)n1ccc(S(=O)(=O)c2cccc(Cl)c2Cl)n1
98 | 88 to 90 °C | CCCCCc1c(C(C)C)nc(C(C)C)c(CO)c1-c1cccc(C)c1
99 | 194 °C | COc1ccc2nccc(CCC[C@@H]3CCN(CCCc4ccccc4F)C[C@@H]3C(=O)O)c2c1
100 | 232 to 233 °C | CCCCCCc1ccnc(-c2ccc(C(N)=O)cc2)n1
